Patent US4952405A, “Method of treating M. avium infection” (Liposome Technology, Inc., priority 1988, dated 1990)
Entries after “also recorded” stand apart in the source; their conditions may differ.

Key:
serotype 4 strain of MAC = conditions: Yajko; cited from earlier work
MAC 101 (serotype 1) [1] = assay: Efficacy against MAC infection in blood of beige mice; assay type: in vivo, Mycobacterium avium complex; beige mice; conditions: for effect on viable MAC units in blood: 0.2 mg and 1.0 mg doses, five I.V. injections, day 7 to 22, FIGS. 2A, 2B; for effect on MAC in the blood: higher dose (1.0 mg)
Procedure: (§1) Briefly, the animals were infected by I.V. injection of MAC, then treated with control, gentamicin, or gentamicin-liposome formulations 7 days later, with a total of five intravenous injections being given over a 9-day treatment period. The level of viable MAC units (cfu's) in the blood was examined at day 7 (before treatment), day 16 (immediately after the five treatment doses) and day 22. […] For both aminoglycoside drugs, dosages of 0.2 mg and 1.0 mg drug were given.
(§2) Immune deficient "beige" mice (Young, 1986) were infected intravenously with 5×10^6 of MAC 101 (serotype 1) on day 0. After 7 days, blood samples were drawn to quantitate the organisms in the blood prior to treatment. […] On the 16th day, the treated mice were bled and the number of viable MAC units in blood was determined. A week later (day 22), the mice were bled again and sacrificed. The liver and spleen were homogenized and the viable MAC were cultured in 7H10 agar for 10 days for colony counts.

MAC 101 serotype 1 [2] = conditions: cited from earlier work
[3] = Renal clearance / drug excretion, free vs liposomal; assay type: in vivo; conditions: after 4 days, mice
Procedure: To examine the difference in drug clearance between free aminoglycoside and an aminoglycoside-liposome composition, free amikacin and amikacin-liposomes were administered to groups of mice, as above, and the amount of drug excreted by the animals over a several-day period was examined.

MAC 101 serotype 1 [4] = assay: MIC against MAC 101 serotype 1 in culture; assay type: cell-based, Mycobacterium avium complex; conditions: strain 101 serotype 1, bacterial culture
Procedure: Among the aminoglycosides, amikacin has been used for treating MAC infection due to its relatively low minimum inhibitory concentration, particularly in the case of certain MAC serotypes. […] Gentamicin would therefore not be expected to be effective in vivo since the toxic level of gentamicin is about 12 μg/ml in the blood, and therefore it is not possible to maintain patients at the inhibitory dose for sustained therapeutic periods. It would be desirable to treat M. avium infection in humans with gentamicin, however, because of the relatively low cost of the drug.

MAC 101 (serotype 1) [5] = assay: Efficacy against MAC infection in liver and spleen of beige mice; assay type: in vivo, Mycobacterium avium complex; beige mice; conditions: for bacteriocidal effect in RES organs (liver, spleen), words: day 22, FIGS. 3A, 3B
Procedure: as §1, §2

[6] = cited from earlier work
[7] = Tolerability of higher gentamicin dose in MAC-infected mice; assay type: in vivo; conditions: about 4 mg per 20 gm mouse
Description: This was confirmed by attempting to further reduce MAC infection by administering higher gentamicin dose.

## NCC[C@H](O)C(=O)N[C@@H]1C[C@H](N)[C@@H](O[C@H]2O[C@H](CN)[C@@H](O)[C@H](O)[C@H]2O)[C@H](O)[C@H]1O[C@H]1O[C@H](CO)[C@@H](O)[C@H](N)[C@H]1O [amikacin]
Serotype 4 strain of MAC
  MIC: 16 to 32 µg/mL
MAC 101 (serotype 1) [1]
  effect on viable MAC units in blood: largely ineffective
  effect on MAC in the blood: significant inhibitory effect on MAC in the blood
MAC 101 (serotype 1) [1]; listed as free amikacin
  effect on viable MAC units in blood: Qualitatively similar results
MAC 101 serotype 1 [2]
  minimum inhibitory concentration (MIC): 2 to 4 µg/mL
[3]; 5760 min
  drug excreted: about 80%
[3]; mouse, in vivo, iv
  dose excreted at 96 h: ~80%
MAC 101 serotype 1 [4]
  relative activity / MIC in MAC culture, amikacin vs gentamicin: nearly an order of magnitude less than that of gentamicin

## gentamicin
Serotype 4 strain of MAC
  MIC: 16 to 32 µg/mL
MAC 101 (serotype 1) [1]; listed as Free gentamicin
  effect on viable MAC units in blood: no measurable activity against MAC in the bloodstream
MAC 101 (serotype 1) [1]; listed as free gentamicin
  effect on viable MAC units in blood: no appreciable inhibitory effect; also recorded: No appreciable inhibition; also recorded: largely ineffective
MAC 101 (serotype 1) [1]
  effect on MAC in the blood: not gentamicin
MAC 101 serotype 1 [2]
  minimum inhibitory concentration (MIC): 36 µg/mL
MAC 101 (serotype 1) [5]; both doses
  effect on MAC in the spleen: moderate killing
MAC 101 (serotype 1) [5]; listed as Free gentamicin
  bacteriocidal effect in RES organs (liver, spleen), words: only modest activity against infection in RES organs
MAC 101 (serotype 1) [5]; listed as free gentamicin
  bacteriocidal effect in RES organs (liver, spleen), words: about the same degree of bacteriocidal action as free amikacin
MAC 101 (serotype 1) [5]; high dose (1.0 mg/kg as printed)
  effect on MAC in the liver: moderate killing activity
MAC 101 (serotype 1) [5]; low dose (0.2 mg/kg as printed)
  effect on MAC in the liver: inhibitory effect on the growth of MAC
MAC 101 serotype 1 [4]
  relative activity / MIC in MAC culture, amikacin vs gentamicin: substantially less active than free amikacin
[6]
  toxic level in the blood: about 12 μg/ml
[7]
  tolerability / animal deaths: large percentage of animal deaths
